Assay results taken from patent US11370774B2, “Substituted benzofuran, benzopyrrole, benzothiophene, and structurally related complement inhibitors” (BioCryst Pharmaceuticals, Inc., priority 2018, dated 2022).

The compounds below were run against Factor D (Homo sapiens (Human), UniProt P00746) (assay: Factor D esterolytic assay (Z-Lys-SBzl substrate, DTNB, 405 nm)). Conditions: Z-Lys-SBzl 1.29 mM, pH 7.5, 10% DMSO, tested a minimum of three times, read-out: Measured Ki (IC50) Value for Compounds: IC50.
Sequence of Factor D (P00746 26-253): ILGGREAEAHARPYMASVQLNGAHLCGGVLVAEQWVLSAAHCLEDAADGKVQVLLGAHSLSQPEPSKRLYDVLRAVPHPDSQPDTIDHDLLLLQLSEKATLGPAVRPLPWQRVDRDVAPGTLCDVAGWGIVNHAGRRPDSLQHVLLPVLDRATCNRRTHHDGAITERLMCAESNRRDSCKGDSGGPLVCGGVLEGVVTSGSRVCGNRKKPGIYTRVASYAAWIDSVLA
Type: biochemical
Procedure, shortened: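 Thioester hydrolysis (Z-Lys-SBzl, 1.29 mM) by human Factor D ([…]) detected through DTNB color at 405 nm over 600 sec, minus 690 nm background. Buffer: 100 mM HEPES pH 7.5, 500 mM NaCl, 10% DMSO; optional room-temperature preincubation before substrate. IC50 derived from percent rate inhibition; at least three runs.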

| Compound | IC50 |
| --- | --- |
| N#Cc1ccc(CC(=O)O)c(OCc2cc(-c3cccc(C(N)CF)c3)c3occc3c2)c1 (single isomer, unassigned; (+)) [Compound 412b, (+)-2-(2-((7-(3-(1-amino-2-fluoroethyl)phenyl)benzofuran-5-yl)methoxy)-4-cyanophenyl)acetic acid] | < 1000 nM |
| NCc1cccc(-c2cc(COc3ccccc3CC(=O)O)cc3cc(C4CCCC4)oc23)c1 [Compound 82f, 2-(2-((7-(3-(aminomethyl)phenyl)-2-cyclopentylbenzofuran-5-yl)methoxy)phenyl)acetic acid] | < 1000 nM |
| NCc1nccc(-c2cc(COc3cc(F)ccc3CC(=O)O)cc3cc(F)oc23)c1F [Compound 522c, 2-(2-((7-(2-(aminomethyl)-3-fluoropyridin-4-yl)-2-fluorobenzofuran-5-yl)methoxy)-4-fluorophenyl)acetic acid] | < 1000 nM |
| NCc1cccc(-c2cc(COc3ccccc3CC(=O)O)cc3cc(C(=O)NCc4ccccc4)oc23)c1 [Compound 290c, 2-(2-((7-(3-(aminomethyl)phenyl)-2-(benzylcarbamoyl)benzofuran-5-yl)methoxy)phenyl)acetic acid] | < 1000 nM |
| CC(C)n1ccc2c(-c3ccnc(CN)c3)cc(COc3ccccc3CC(=O)O)cc21 [Compound 118c, 2-(2-((4-(2-(aminomethyl)pyridin-4-yl)-1-isopropyl-1H-indol-6-yl)methoxy)phenyl)acetic acid] | < 1000 nM |
| NCc1cccc(-c2nc(C(=O)Nc3ccccc3CC(=O)O)nc3ccoc23)c1 [Compound 36h, 2-(2-(4-(3-(aminomethyl)phenyl)furo[3,2-d]pyrimidine-2-carboxamido)phenyl)acetic acid] | < 1000 nM |
| NCc1cccc(-c2cc(COc3cc(F)ccc3CC(=O)O)c(F)c3ccoc23)c1 [Compound 484c, 2-(2-((7-(3-(aminomethyl)phenyl)-4-fluorobenzofuran-5-yl)methoxy)-4-fluorophenyl)acetic acid] | < 1000 nM |
| COc1ccc(CC(=O)O)c(OCc2cc(-c3cccc(CN)c3F)c3oc(F)cc3c2)c1 [Compound 481b, 2-(2-((7-(3-(aminomethyl)-2-fluorophenyl)-2-fluorobenzofuran-5-yl)methoxy)-4-methoxyphenyl)acetic acid] | < 1000 nM |
| NCc1ccc(CC(=O)O)c(OCc2cc(-c3cccc(CN)c3F)c3occc3c2)c1 [Compound 456c, 2-(4-(aminomethyl)-2-((7-(3-(aminomethyl)-2-fluorophenyl)benzofuran-5-yl)methoxy)phenyl)acetic acid] | < 1000 nM |
| NCc1cccc(-c2cc(CCN3CCC[C@H]3C(=O)NCc3cccc(Cl)c3F)cc3ccoc23)c1 [Compound 369d, (S)-1-(2-(7-(3-(aminomethyl)phenyl)benzofuran-5-yl)ethyl)-N-(3-chloro-2-fluorobenzyl)pyrrolidine-2-carboxamide] | < 1000 nM |
| NCc1cccc(-c2cc(COc3ccccc3C(NC(=O)CCc3ccccc3)C(=O)O)cc3ccoc23)c1 (centres unmarked) [Compound 253f, 2-(2-((7-(3-(aminomethyl)phenyl)benzofuran-5-yl)methoxy)phenyl)-2-(3-phenylpropanamido)acetic acid] | < 1000 nM |
| Cc1noc2c(-c3ccnc(CN)c3)cc(COc3ccccc3CC(=O)O)cc12 [Compound 268h, 2-(2-((7-(2-(aminomethyl)pyridin-4-yl)-3-methylbenzo[d]isoxazol-5-yl)methoxy)phenyl)acetic acid] | < 1000 nM |
| NCc1cccc(-c2cc(C(=O)Nc3ccccc3CC(=O)O)c3ncnn3c2)c1 [Compound 20e, 2-(2-(6-(3-(aminomethyl)phenyl)-[1,2,4]triazolo[1,5-a]pyridine-8-carboxamido)phenyl)acetic acid] | > 10000 nM |
| NCc1cccc(-c2cc(COc3cc(Br)ccc3CC(=O)O)cc3ccoc23)c1 [Compound 182d, 2-(2-((7-(3-(aminomethyl)phenyl)benzofuran-5-yl)methoxy)-4-bromophenyl)acetic acid] | < 1000 nM |
| NCc1cc(-c2cc(COc3cc(-c4ccccc4)ccc3CC(=O)O)cc3ccoc23)ccn1 [Compound 393d, 2-(3-((7-(2-(aminomethyl)pyridin-4-yl)benzofuran-5-yl)methoxy)-[1,1′-biphenyl]-4-yl)acetic acid] | < 1000 nM |
| Cc1noc2c(-c3cccc(CN)c3F)cc(COc3ccccc3CC(=O)O)cc12 [Compound 267h, 2-(2-((7-(3-(aminomethyl)-2-fluorophenyl)-3-methylbenzo[d]isoxazol-5-yl)methoxy)phenyl)acetic acid] | < 1000 nM |
| COCc1cc2cc(COc3cc(C)ccc3CC(=O)O)cc(-c3cccc(C(N)CF)c3)c2o1 (single isomer, unassigned; (+)) [Compound 455c, (+)-2-(2-((7-(3-(1-amino-2-fluoroethyl)phenyl)-2-(methoxymethyl)benzofuran-5-yl)methoxy)-4-methylphenyl)acetic acid] | < 1000 nM |
| CCCc1cc2cc(COc3ccccc3CC(=O)O)cc(-c3ccnc(CN)c3F)c2o1 [Compound 190c, 2-(2-((7-(2-(aminomethyl)-3-fluoropyridin-4-yl)-2-propylbenzofuran-5-yl)methoxy)phenyl)acetic acid] | < 1000 nM |
| NCc1cccc(-c2cc(COc3ccccc3CC(=O)O)cc3cc(-c4ccccc4)oc23)c1 [Compound 374f, 2-(2-((7-(3-(aminomethyl)phenyl)-2-phenylbenzofuran-5-yl)methoxy)phenyl)acetic acid] | < 1000 nM |
| C[C@@H](N)c1cccc(-c2nc(C(=O)Nc3ccccc3CC(=O)O)c3cccn3n2)c1F [Compound 33f, (R)-2-(2-(2-(3-(1-aminoethyl)-2-fluorophenyl)pyrrolo[2,1-f][1,2,4]triazine-4-carboxamido)phenyl)acetic acid] | < 1000 nM |
| NCc1cc(-c2cc(COc3ccccc3CC(=O)O)c(F)c3ccoc23)ccn1 [Compound 172b, 2-(2-((7-(2-(aminomethyl)pyridin-4-yl)-4-fluorobenzofuran-5-yl)methoxy)phenyl)acetic acid] | < 1000 nM |
| N#Cc1ccc(CC(=O)O)c(OCc2cc(-c3ccnc(CN)c3F)c3occc3c2)c1 [Compound 435b, 2-(2-((7-(2-(aminomethyl)-3-fluoropyridin-4-yl)benzofuran-5-yl)methoxy)-4-cyanophenyl)acetic acid] | < 1000 nM |
| NCc1cccc(-c2cc(COc3ccccc3CC(=O)O)cc3nccn23)c1 [Compound 107f, 2-(2-((5-(3-(aminomethyl)phenyl)imidazo[1,2-a]pyridin-7-yl)methoxy)phenyl)acetic acid] | < 1000 nM |

Further lines, results first:

| IC50 | Compound |
| --- | --- |
| < 1000 nM | NCc1cccc(-c2cc(COc3ccccc3CC(=O)O)cc3c2OCC3)c1 [Compound 43d, 2-(2-((7-(3-(aminomethyl)phenyl)-2,3-dihydrobenzofuran-5-yl)methoxy)phenyl)acetic acid] |
| < 1000 nM | NCc1cccc(-c2cc(C(=O)Nc3ccccc3CC(=O)O)cc3nn(CC4CC4)cc23)c1 [Compound 11b, 2-(2-(4-(3-(aminomethyl)phenyl)-2-(cyclopropylmethyl)-2H-indazole-6-carboxamido)phenyl)acetic acid] |
| < 1000 nM | N#Cc1cccc(C(=O)NCc2cc3cc(COc4ccccc4CC(=O)O)cc(-c4cccc(CN)c4)c3o2)c1 [Compound 295c, 2-(2-((7-(3-(aminomethyl)phenyl)-2-((3-cyanobenzamido)methyl)benzofuran-5-yl)methoxy)phenyl)acetic acid] |
| < 1000 nM | CC(C)n1ccc2c(-c3cccc(CN)c3F)cc(COc3ccccc3CC(=O)O)cc21 [Compound 111b, 2-(2-((4-(3-(aminomethyl)-2-fluorophenyl)-1-isopropyl-1H-indol-6-yl)methoxy)phenyl)acetic acid] |
| < 1000 nM | CC(C)S(=O)(=O)n1ccc2c(-c3ccnc(CN)c3)cc(COc3ccccc3CC(=O)O)cc21 [Compound 233c, 2-(2-((4-(2-(aminomethyl)pyridin-4-yl)-1-(isopropylsulfonyl)-1H-indol-6-yl)methoxy)phenyl)acetic acid] |
| < 1000 nM | COCc1cc2cc(COc3ccc(F)cc3CC(=O)O)cc(-c3ccnc(CN)c3)c2o1 [Compound 529b, 2-(2-((7-(2-(aminomethyl)pyridin-4-yl)-2-(methoxymethyl)benzofuran-5-yl)methoxy)-5-fluorophenyl)acetic acid] |
| < 1000 nM | Cn1ncc2c(-c3cccc(CN)c3)cc(COc3ccccc3CC(=O)O)cc21 [Compound 131b, 2-(2-((4-(3-(aminomethyl)phenyl)-1-methyl-1H-indazol-6-yl)methoxy)phenyl)acetic acid] |
| < 1000 nM | NCc1cc(-c2cc(COc3ccccc3CC(=O)O)cc3ccoc23)cs1 [Compound 339c, 2-(2-((7-(5-(aminomethyl)thiophen-3-yl)benzofuran-5-yl)methoxy)phenyl)acetic acid] |
| < 1000 nM | NCc1cc(-c2cc(COc3ccccc3CC(=O)O)cc3sccc23)ccn1 [Compound 221c, 2-(2-((4-(2-(aminomethyl)pyridin-4-yl)benzo[b]thiophen-6-yl)methoxy)phenyl)acetic acid] |
| < 1000 nM | NCc1cccc(-c2cc(COc3ccccc3CC(=O)O)cc3cc(C(O)C4CC4)oc23)c1 (centres unmarked) [Compound 105c, 2-(2-((7-(3-(aminomethyl)phenyl)-2-(cyclopropyl(hydroxy)methyl)benzofuran-5-yl)methoxy)phenyl)acetic acid] |
| < 1000 nM | CS(=O)(=O)n1ccc2c(-c3cccc(CN)c3)cc(COc3ccccc3CC(=O)O)cc21 [Compound 192e, 2-(2-((4-(3-(aminomethyl)phenyl)-1-(methylsulfonyl)-1H-indol-6-yl)methoxy)phenyl)acetic acid] |
| < 1000 nM | NCc1cccc(-c2cc(COc3ccccc3CC(=O)O)cc3c2ccn3C(F)(F)F)c1 [Compound 517d, 2-(2-((4-(3-(aminomethyl)phenyl)-1-(trifluoromethyl)-1H-indol-6-yl)methoxy)phenyl)acetic acid] |
